Active and inactive are the calls of the source. The rule behind the calls is not given here.
How the values were obtained:
[1] = test system: Human immunodeficiency virus 1; assay: Antiviral activity against HIV-1 infected in human MT-4 cells assessed as inhibition of viral-induced cytopathogenicity after 4 days by MTT assay; assay type: functional, organism-based; settings: Human immunodeficiency virus 1, MT4, 96 h
[2] = (§1) Cytotoxicity against human MT4 cells after 4 days by MTT assay; assay type: cell-based; settings: MT4 cells
[3] = Selectivity index, ratio of CC50 for human MT-4 cells to EC50 for HIV-1; assay type: toxicity, cell-based, MT4; settings: read-out: Ratio CC50/EC50
Human respirovirus 3 = assay: Antiviral activity against Parainfluenza-3 virus infected in african green monkey Vero cells assessed as inhibition of viral-induced cytopathogenicity; assay type: functional, organism-based
[4] = test system: Mammalian orthoreovirus 1; assay: Antiviral activity against Reovirus-1 infected in african green monkey Vero cells assessed as inhibition of viral-induced cytopathogenicity; assay type: functional, organism-based
Sindbis virus = assay: Antiviral activity against Sindbis virus infected in african green monkey Vero cells assessed as inhibition of viral-induced cytopathogenicity; assay type: functional, organism-based
Coxsackievirus B4 = assay: Antiviral activity against Coxsackie B4 virus infected in african green monkey Vero cells assessed as inhibition of viral-induced cytopathogenicity; assay type: functional, organism-based
Punta Toro virus = assay: Antiviral activity against Punta Toro virus infected in african green monkey Vero cells assessed as inhibition of viral-induced cytopathogenicity; assay type: functional, organism-based
[5] = test system: Vesicular stomatitis virus; assay: Antiviral activity against VSV infected in human HeLa cells assessed as inhibition of viral-induced cytopathogenicity; assay type: functional, organism-based
[6] = test system: Respiratory syncytial virus; assay: Antiviral activity against RSV infected in human HeLa cells assessed as inhibition of viral-induced cytopathogenicity; assay type: functional, organism-based
Feline coronavirus = assay: Antiviral activity against Feline coronavirus infected in CrFK cells assessed as inhibition of viral-induced cytopathogenicity; assay type: functional, organism-based
Felid alphaherpesvirus 1 = assay: Antiviral activity against Feline herpes virus infected in CrFK cells assessed as inhibition of viral-induced cytopathogenicity; assay type: functional, organism-based
Influenza A virus [7] = assay: Antiviral activity against Influenza A virus H1N1 infected in MDCK cells assessed as inhibition of viral-induced cytopathogenicity; assay type: functional, organism-based
Influenza A virus [8] = assay: Antiviral activity against Influenza A virus H3N2 infected in MDCK cells assessed as inhibition of viral-induced cytopathogenicity; assay type: functional, organism-based
Influenza B virus = assay: Antiviral activity against influenza B virus infected in MDCK cells assessed as inhibition of viral-induced cytopathogenicity; assay type: functional, organism-based
[9] = Cytotoxicity against human HEL cells assessed as changes in cell morphology by microscopy; assay type: cell-based
MT4 = assay: as §1; assay type: cell-based; settings: mt4, 96 h
Human alphaherpesvirus 1 [10] = assay: Antiviral activity against HSV-1 KOS infected in HEL cells assessed as inhibition of viral-induced cytopathogenicity; assay type: functional, organism-based; settings: Human alphaherpesvirus 1, KOS
Human alphaherpesvirus 2 = assay: Antiviral activity against HSV-2 G infected in HEL cells assessed as inhibition of viral-induced cytopathogenicity; assay type: functional, organism-based; settings: Human alphaherpesvirus 2, strain G
Human alphaherpesvirus 1 [11] = assay: Antiviral activity against ACV-resistant TK-deficient HSV-1 KOS infected in HEL cells assessed as inhibition of viral-induced cytopathogenicity; assay type: functional, organism-based; settings: Human alphaherpesvirus 1, KOS
[12] = Selectivity index, ratio of MCC for human HEL cells to EC50 for HSV-1 KOS
[13] = Selectivity index, ratio of MCC for human HEL cells to EC50 for HSV-2 G

Compound	EC50 [1]	selectivity ratio [3]	Activity (Human respirovirus 3)	Activity [4]	Activity (Sindbis virus)	Activity (Coxsackievirus B4)	Activity (Punta Toro virus)	Activity [5]	Activity [6]	Activity (Feline coronavirus)	Activity (Felid alphaherpesvirus 1)	Activity (Influenza A virus [7])	Activity (Influenza A virus [8])	Activity (Influenza B virus)	MCC [9]	CC50 (MT4)	EC50 (Human alphaherpesvirus 1 [10])	EC50 (Human alphaherpesvirus 2)	EC50 (Human alphaherpesvirus 1 [11])	other results
C#C[C@]1(CO)O[C@@H](n2cnc3c(N)ncnc32)C[C@@H]1O	0.0098 µM	1630	inactive	inactive	inactive	inactive	inactive	inactive	inactive	inactive	inactive	inactive	inactive	inactive	–	–	–	–	–	CC50 at 96 h [2]: 16 µM
Nc1nc2c(ncn2COC(CO)CO)c(=O)[nH]1 [GANCICLOVIR]	–	–	–	–	–	–	–	–	–	–	–	–	–	–	> 100 µM	–	–	–	–	–
C#C[C@]1(CO)O[C@@H](n2cnc3c(=O)[nH]c(N)nc32)C[C@@H]1O	0.0015 µM	933	inactive	inactive	inactive	inactive	inactive	inactive	inactive	inactive	inactive	inactive	inactive	inactive	–	–	–	–	–	CC50 at 96 h [2]: 1.4 µM
C#C[C@]1(CO)O[C@@H](n2ccc(N)nc2=O)C[C@@H]1O	0.0048 µM	–	inactive	inactive	inactive	inactive	inactive	inactive	inactive	inactive	inactive	–	–	–	–	–	–	–	–	–
C#C[C@]1(CO)S[C@@H](n2cnc3c(=O)[nH]c(N)nc32)C[C@@H]1O	0.0055 µM	> 18200	inactive	inactive	inactive	inactive	inactive	inactive	inactive	inactive	inactive	inactive	inactive	inactive	> 100 µM	> 100 µM	3 µM	1.5 µM	4.5 µM	Selectivity Index [12]: >50; Selectivity Index [13]: >50
C#C[C@]1(CO)S[C@@H](n2cnc3c(N)ncnc32)C[C@@H]1O	0.087 µM	> 230	inactive	inactive	inactive	inactive	inactive	inactive	inactive	inactive	inactive	inactive	inactive	inactive	> 100 µM	> 20 µM	7 µM	4 µM	8 µM	–
C#C[C@]1(CO)S[C@@H](n2ccc(N)nc2=O)C[C@@H]1O	0.011 µM	545	inactive	inactive	inactive	inactive	inactive	inactive	inactive	inactive	inactive	inactive	inactive	inactive	> 100 µM	6 µM	2 µM	1.5 µM	2.5 µM	Selectivity Index [12]: >50; Selectivity Index [13]: >50
